Assay results published in patent publication US7462599B2, “Use of effectors of glutaminyl and glutamate cyclases” (Probiodrug AG, priority 2003, dated 2008).
“Also recorded” adds a separate entry of the source. Where two headings read alike, the source gives them in different places. Ends that are not written are not given here.

Key:
[1] = tested on: Glutaminyl cyclase present in the homogenate of porcine pituitary; test: Cyclization of Gln3-Aβ(3-11)a by QC in pituitary homogenate, MALDI-TOF; format: biochemical
Procedure: (§1) Matrix-assisted laser desorption/ionization mass spectrometry was carried out using the Hewlett-Packard G2025 LD-TOF System with a linear time of flight analyzer. […] Samples (5 μl) were mixed with equal volumes of the matrix solution. For matrix solution we used DHAP/DAHC, prepared by solving 30 mg 2′,6′-dihydroxyacetophenone (Aldrich) and 44 mg diammonium hydrogen citrate (Fluka) in 1 ml acetonitrile/0.1% TFA in water (1/1, v/v). A small volume (≈1 μl) of the matrix-analyte-mixture was transferred to a probe tip and immediately evaporated in a vacuum chamber (Hewlett-Packard G2024A sample prep accessory) to ensure rapid and homogeneous sample crystallization.

DP IV and QC = test: Consecutive catalysis of DP IV and QC in crude pituitary homogenate with added DPIV, MALDI-TOF; format: biochemical, porcine; conditions: inhibitor added
Procedure: as §1

mammalian QC = conditions: Busby et al. 1987; cited from earlier work
QC [2] = biological target: T1, QC (Homo sapiens, UniProt Q16769); test: Enzyme inactivation/reactivation of human QC; format: biochemical; parameters: The cDNA of the mature QC starting with codon 38 was fused in frame with the plasmid encoded 6× histidine tag; 6x histidine tag; made in house; host or cells: Pichia pastoris X33 (pPICZαB); also E. coli M15 (pQE-31)
T1 sequence (Q16769 29-361): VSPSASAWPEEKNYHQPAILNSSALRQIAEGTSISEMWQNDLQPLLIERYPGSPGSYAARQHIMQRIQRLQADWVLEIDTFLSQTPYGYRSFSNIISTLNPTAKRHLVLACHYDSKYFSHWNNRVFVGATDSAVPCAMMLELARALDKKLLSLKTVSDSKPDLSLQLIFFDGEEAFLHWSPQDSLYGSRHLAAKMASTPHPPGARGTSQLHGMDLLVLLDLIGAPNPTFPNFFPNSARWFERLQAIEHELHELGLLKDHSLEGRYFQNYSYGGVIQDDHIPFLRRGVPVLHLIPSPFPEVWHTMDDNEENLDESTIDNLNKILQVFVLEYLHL

DP IV (porcine kidney) = biological target: T2, DP IV (porcine kidney) (Sus scrofa, UniProt P22411); test: DP IV cleavage of Gln3-Aβ(1-11)a, MALDI-TOF; format: biochemical
T2 construct: purified DP IV (porcine kidney); from tissue; host or cells: porcine kidney
T2 sequence (P22411 whole entry): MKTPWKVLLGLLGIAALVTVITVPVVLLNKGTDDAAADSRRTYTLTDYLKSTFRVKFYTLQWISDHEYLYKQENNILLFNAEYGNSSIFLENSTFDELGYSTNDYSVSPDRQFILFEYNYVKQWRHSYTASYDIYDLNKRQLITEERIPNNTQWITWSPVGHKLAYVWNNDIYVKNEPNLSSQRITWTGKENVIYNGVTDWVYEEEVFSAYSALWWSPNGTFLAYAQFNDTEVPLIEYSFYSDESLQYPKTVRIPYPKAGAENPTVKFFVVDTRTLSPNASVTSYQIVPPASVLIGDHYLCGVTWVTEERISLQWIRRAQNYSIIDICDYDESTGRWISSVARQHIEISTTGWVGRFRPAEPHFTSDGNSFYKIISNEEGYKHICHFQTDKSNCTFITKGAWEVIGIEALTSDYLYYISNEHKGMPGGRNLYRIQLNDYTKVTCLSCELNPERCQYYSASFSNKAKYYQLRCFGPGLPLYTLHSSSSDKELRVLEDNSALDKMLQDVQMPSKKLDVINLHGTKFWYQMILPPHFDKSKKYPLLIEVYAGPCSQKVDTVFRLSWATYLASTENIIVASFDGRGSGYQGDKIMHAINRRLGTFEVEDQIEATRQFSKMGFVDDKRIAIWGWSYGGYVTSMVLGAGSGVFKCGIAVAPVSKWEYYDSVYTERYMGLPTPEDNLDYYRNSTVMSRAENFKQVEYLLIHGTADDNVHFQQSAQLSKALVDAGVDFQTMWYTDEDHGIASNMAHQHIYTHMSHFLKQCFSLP
Procedure: as §1

QC [3] = biological target: T1, QC; test: Long-term Glu1-cyclization of Aβ-derived peptides by recombinant human QC, MALDI-TOF; format: biochemical; parameters: The cDNA of the mature QC starting with codon 38 was fused in frame with the plasmid encoded 6× histidine tag; 6x histidine tag; made in house; host or cells: Pichia pastoris X33 (pPICZαB); also E. coli M15 (pQE-31); conditions: 5 mM benzimidazole
Description: At different times, samples were removed from the assay tube, peptides extracted using ZipTips (Millipore) according to the manufacturer's recommendations, mixed with matrix solution (1:1 v/v) and subsequently the mass spectra recorded.

[4] = Solubility in aqueous solution
QC [5] = biological target: T1, QC; test: LC/MS analysis of QC-catalyzed pyroglutamate formation; format: biochemical

c1cnc2c(c1)ccc1cccnc12 [1,10-phenanthroline]
inhibition of formation of [pGlu3]Aβ(3-11)a from Gln3-Aβ(3-11)a [1]: inhibited; also recorded: inhibition of the formation
[pGlu3]Aβ(3-11)a formation from Gln3-Aβ(1-11)a in presence of DP IV and QC (DP IV and QC): inhibition
inhibition of mammalian QC (mammalian QC): Inhibition of a mammalian QC was only detected
inhibition of human QC catalyzed substrate cyclization by chelators (QC [2]): inhibited
inactivation of human QC after extensive dialysis (QC [2]; 5 mM inactivating agent): almost completely inactivated

CC(C)[C@H](N)C(=O)N1CCCC1 [Val-Pyrr, Val-Pyrrolidide]
prevention of DP IV cleavage of Gln3-Aβ(1-11)a (DP IV (porcine kidney)): completely prevented
prevention of DP IV cleavage of Gln3-Aβ(1-11)a (DP IV (porcine kidney); listed as Val-Pyrrolidide): prevention of the cleavage
[pGlu3]Aβ(3-11)a formation from Gln3-Aβ(1-11)a in presence of DP IV and QC (DP IV and QC): reduction

c1ccc2[nH]cnc2c1 [benzimidazole]
suppression of [pGlu3]Aβ(3-11)a / [pGlu3]Aβ(3-21)a formation (QC [3]): suppressed
suppression of [pGlu3]Aβ(3-11)a / [pGlu3]Aβ(3-21)a formation (QC [3]; listed as Benzimidazole): suppressing the formation

QFRHDSGYE-NH2 [[Gln^3]Aβ3-11a]
solubility in aqueous solution [4]: better solubility

[Gln^5]-substance P(5-11): substance P fragment 5-11 with N-terminal Gln^5 after cleavage of residues 1-4 (QQFFGLM; ends and bridges not checked)
formation of N-terminal pyroglutamate catalyzed by QC (QC [5]): transformed by QC
